# Experimental data published in PubChem BioAssay AID624300 (Southern Research Specialized Biocontainment Screening …, 2012).
# Tested on: HeLa viability, CellTiter-Glo luminescence, 24 h
# Test: viability loss in HeLa cells – cytotoxicity control for MgcRacGAP inhibitor project, dose response (AID 624300)
smiles,measurement,value
C#CCOCCOCCOCCNc1nc(N2CCN(C(=O)CCCCCCCCCCNC(=O)[C@@H](CCSC)n3cc(CCO)nn3)CC2)nc(N2CCN(C(=O)CCCCCCCCCCNC(=O)[C@H](CO)n3cc(CCCCCN)nn3)CC2)n1,CC50,85.3 µM
